Drawing on patent US20100093702A1, “METHYLENE AMINES OF THIENO[2,3-d]PYRIMIDINE AND THEIR USE AS ADENOSINE A2a RECEPTOR ANTAGONISTS” (priority 2008, published 2010), this text covers Ki for 14 molecules.

For assay [1], the target named is T1, human adenosine A1 receptor (Homo sapiens, UniProt P30542).
T1 construct: expressed in transfected cells; host or cells: CHO-K1
T1 sequence (P30542 1-326): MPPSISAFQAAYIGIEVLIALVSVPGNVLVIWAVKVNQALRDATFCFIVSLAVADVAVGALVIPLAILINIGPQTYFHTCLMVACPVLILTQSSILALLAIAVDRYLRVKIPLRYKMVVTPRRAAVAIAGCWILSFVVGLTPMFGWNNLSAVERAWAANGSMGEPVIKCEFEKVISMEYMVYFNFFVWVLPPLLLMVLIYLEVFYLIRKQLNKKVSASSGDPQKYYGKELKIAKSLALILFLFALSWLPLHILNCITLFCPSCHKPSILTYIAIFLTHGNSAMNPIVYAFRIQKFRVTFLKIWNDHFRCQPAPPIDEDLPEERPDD
In words: Adenosine A1 Receptor Functional Assay (A1GAL2). The conditions noted are these: CHO-K1 cells, cAMP inducible beta-galactosidase reporter, 4 nM r-PIA/1 uM Forskolin challenge. In kind it is cell-based. The procedure: Adenosine A1 Receptor Functional Assay (A1GAL2)
To initiate the functional assay, cryopreserved CHO-K1 cells overexpressing the human adenosine A1 receptor and containing a cAMP inducible beta-galactosidase reporter gene were thawed, centrifuged, DMSO containing media removed, and then seeded with fresh culture media into clear 384-well tissue culture treated plates (BD #353961) at a concentration of 10K cells/well. Prior to assay, these plates were cultured for two days at 37° C., 5% CO2, 90% Rh. On the day of the functional assay, culture media was removed and replaced with 45 uL assay medium (Hams/F-12 Modified (Mediatech # 10-080CV) supplemented w/0.1% BSA). Test compounds were diluted and 11 point curves created at a 1000× concentration in 100% DMSO. Immediately after addition of assay media to the cell plates, […] of the appropriate test compound antagonist or agonist control curves were added to cell plates using a Cartesian Hummingbird. Compound curves were allowed to incubate at room temperature on cell plates for approximately 15 minutes before addition of a 4 nM r-PIA (Sigma P4532)/1 uM Forskolin (Sigma F3917) agonist challenge (5 uL volume). A control curve of r-PIA in 1 uM Forskolin, a DMSO/Media control, and a single dose of Forskolin were also included on each plate. After additions, cell plates were allowed to incubate at 37° C., 5% CO2, 90% Rh for 5.5-6 hours. After incubation, media was removed, and cell plates were washed 1×50 uL with DPBS w/o Ca & Mg (Mediatech 21-031-CV).
Into dry wells, 20 uL of 1× Reporter Lysis Buffer (Promega E3971 (diluted in dH2O from 5× stock)) was added to each well and plates frozen at −20° C. overnight. For β-galactosidase enzyme calorimetric assay, plates were thawed out at room temperature and 20 μL 2× assay buffer (Promega) was added to each well. Color was allowed to develop at 37° C., 5% CO2, 90% Rh for 1-1.5 h or until reasonable signal appeared. The calorimetric reaction was stopped with the addition of 60 μL/well 1M sodium carbonate. Plates were counted at 405 nm on a SpectraMax Microplate Reader (Molecular Devices). Data was analyzed in Microsoft Excel and IC/EC50 curves were fit using a standardized macro.

Assay [2] concerns the target T2, human adenosine A2a receptor (Homo sapiens, UniProt P29274).
T2 construct: expressed in transfected cells; host or cells: CHO-K1
In words: Adenosine A2a Receptor Functional Assay (A2AGAL2). In kind it is cell-based. The conditions noted are these: CHO-K1 cells, cAMP inducible beta-galactosidase reporter, 15 nM NECA agonist challenge. The procedure: Adenosine A2a Receptor Functional Assay (A2AGAL2)
To initiate the functional assay, cryopreserved CHO-K1 cells overexpressing the human adenosine A2a receptor and containing a cAMP inducible beta-galactosidase reporter gene were thawed, centrifuged, DMSO containing media removed, and then seeded with fresh culture media into clear 384-well tissue culture treated plates (BD #353961) at a concentration of 10K cells/well. Prior to assay, these plates were cultured for two days at 37° C., 5% CO2, 90% Rh. On the day of the functional assay, culture media was removed and replaced with 45 uL assay medium (Hams/F-12 Modified (Mediatech # 10-080CV) supplemented w/0.1% BSA). Test compounds were diluted and 11 point curves created at a 1000× concentration in 100% DMSO. Immediately after addition of assay media to the cell plates, 50 nL of the appropriate test compound antagonist or agonist control curves were added to cell plates using a Cartesian Hummingbird. Compound curves were allowed to incubate at room temperature on cell plates for approximately 15 minutes before addition of a 15 nM NECA (Sigma E2387) agonist challenge (5 uL volume). A control curve of NECA, a DMSO/Media control, and a single dose of Forskolin (Sigma F3917) were also included on each plate. After additions, cell plates were allowed to incubate at 37° C., 5% CO2, 90% Rh for 5.5-6 hours. After incubation, media was removed, and cell plates were washed 1×50 uL with DPBS w/o Ca & Mg (Mediatech 21-031-CV). Into dry wells, 20 uL of 1× Reporter Lysis Buffer (Promega E3971 (diluted in dH2O from 5× stock)) was added to each well and plates frozen at −20° C. overnight. For β-galactosidase enzyme calorimetric assay, plates were thawed out at room temperature and 20 μL 2× assay buffer (Promega) was added to each well. Color was allowed to develop at 37° C., 5% CO2, 90% Rh for 1-1.5 h or until reasonable signal appeared. The calorimetric reaction was stopped with the addition of 60 μL/well 1M sodium carbonate. Plates were counted at 405 nm on a SpectraMax Microplate Reader (Molecular Devices). Data was analyzed in Microsoft Excel and IC/EC50 curves were fit using a standardized macro.

T2 sequence (P29274 whole entry): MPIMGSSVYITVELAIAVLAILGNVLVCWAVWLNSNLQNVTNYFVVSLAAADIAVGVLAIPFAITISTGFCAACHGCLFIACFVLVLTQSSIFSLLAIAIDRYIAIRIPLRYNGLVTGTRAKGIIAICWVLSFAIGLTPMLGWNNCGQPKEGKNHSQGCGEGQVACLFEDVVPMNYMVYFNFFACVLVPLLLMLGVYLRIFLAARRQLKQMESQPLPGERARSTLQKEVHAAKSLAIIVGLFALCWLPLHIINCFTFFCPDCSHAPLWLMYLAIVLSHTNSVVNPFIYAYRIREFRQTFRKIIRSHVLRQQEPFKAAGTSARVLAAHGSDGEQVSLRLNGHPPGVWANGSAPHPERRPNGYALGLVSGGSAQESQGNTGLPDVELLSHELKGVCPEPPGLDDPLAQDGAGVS

One may read the Ki as a dissociation constant, usually derived from enzyme kinetics or from competition with a known ligand. `Nc1nc(-c2cc(F)cc(F)c2)nc2sc(CN3CCC(F)CC3)cc12` [Example 55, 2-(3,5-Difluoro-phenyl)-6-(4-fluoro-piperidin-1-ylmethyl)-thieno[2,3-d]pyrimidin-4-ylamine]: the inhibition constant (Ki) is 3410 nM in assay [1] and 1060 nM in assay [2].

Regarding `Nc1nc(-c2cccc(F)c2)nc2sc(CN3CCSCC3)cc12` [Example 58, 2-(3-Fluoro-phenyl)-6-thiomorpholin-4-ylmethyl-thieno[2,3-d]pyrimidin-4-ylamine], the Ki in assay [1] came to 331 nM; in assay [2], 73.6 nM.

Regarding `Nc1nc(-c2cc3ccccc3o2)nc2sc(CN3CCC(F)CC3)cc12` [Example 59, 2-Benzofuran-2-yl-6-(4-fluoropiperidin-1-ylmethyl)thieno[2,3-d]pyrimidin-4-ylamine], the inhibition constant Ki in assay [1] is 634 nM; in assay [2] it was 348 nM.

`Nc1nc(-c2cccc(F)c2)nc2sc(CN3CCC(F)CC3)cc12` [Example 60, 2-(3-Fluoro-phenyl)-6-(4-fluoro-piperidin-1-ylmethyl)-thieno[2,3-d]pyrimidin-4-ylamine]: the Ki in assay [1] was 1250 nM; in assay [2], 300 nM.

Turning to `Nc1nc(-c2cccc(F)c2)nc2sc(CN3CCOCC3)cc12` [Example 61, 2-(3-Fluoro-phenyl)-6-morpholin-4-ylmethyl-thieno[2,3-d]pyrimidin-4-ylamine], the inhibition constant Ki in assay [1] amounted to 616 nM; in assay [2] it was 123 nM.

As to `N#Cc1ccc(-c2nc(N)c3cc(CN4CCC(F)CC4)sc3n2)cc1` [Example 66, 4-[4-Amino-6-(4-fluoro-piperidin-1-ylmethyl)-thieno[2,3-d]pyrimidin-2-yl]-benzonitrile], the inhibitory constant (Ki) amounted to 8430 nM in assay [1] and 1390 nM in assay [2].

`N#Cc1ccc(-c2nc(N)c3cc(CN4CCCCCC4)sc3n2)cc1` [Example 67, 4-(4-Amino-6-azepan-1-ylmethyl-thieno[2,3-d]pyrimidin-2-yl)-benzonitrile]: the figures for the Ki in assay [1] and in assay [2] were 8550 nM and 384 nM, respectively.

For `COc1cccc(-c2nc(N)c3cc(CN4CCC(F)CC4)sc3n2)c1` [Example 71, 6-(4-Fluoro-piperidin-1-ylmethyl)-2-(3-methoxy-phenyl)-thieno[2,3-d]pyrimidin-4-ylamine], the inhibition constant Ki in assay [1] was determined as 3220 nM; in assay [2], 303 nM.

As for `N#Cc1ccc(-c2nc(N)c3cc(CN4CCC(F)CC4)sc3n2)s1` [Example 72, 5-[4-Amino-6-(4-fluoro-piperidin-1-ylmethyl)-thieno[2,3-d]pyrimidin-2-yl]-thiophene-2-carbonitrile], the inhibition constant Ki in assay [1] is 1910 nM; in assay [2] it was 91.3 nM.

In the case of `Nc1nc(-c2ncco2)nc2sc(CN3CCOCC3)cc12` [Example 75, 6-Morpholin-4-ylmethyl-2-oxazol-2-yl-thieno[2,3-d]pyrimidin-4-ylamine], the inhibitory constant (Ki) in assay [1] came out at 3250 nM; in assay [2], 356 nM.

Consider `Nc1nc(-c2ccc3c(c2)OCO3)nc2sc(CN3CCC(F)CC3)cc12` [Example 76, 2-Benzo[1,3]dioxol-5-yl-6-(4-fluoro-piperidin-1-ylmethyl)-thieno[2,3-d]pyrimidin-4-ylamine], for which the inhibition constant (Ki) in assay [1] is 740 nM; in assay [2] it was 209 nM.

As for `Nc1nc(-c2ccc[nH]2)nc2sc(CN3CCC(F)CC3)cc12` [Example 81, 6-(4-Fluoro-piperidin-1-ylmethyl)-2-(1H-pyrrol-2-yl)-thieno[2,3-d]pyrimidin-4-ylamine], the Ki in assay [1] was 3890 nM; in assay [2], 795 nM.

Regarding `COc1cccc(-c2nc(N)c3cc(CN4CCOCC4)sc3n2)c1` [Example 84, 2-(3-Methoxy-phenyl)-6-morpholin-4-ylmethyl-thieno[2,3-d]pyrimidin-4-ylamine], the inhibition constant (Ki) in assay [1] was 2990 nM; in assay [2], 373 nM.

Turning to `N#Cc1cncc(-c2nc(N)c3cc(CN4CCC(F)CC4)sc3n2)c1` [Example 87, 5-[4-Amino-6-(4-fluoro-piperidin-1-ylmethyl)-thieno[2,3-d]pyrimidin-2-yl]-nicotinonitrile], the Ki in assay [1] is more than 10000 nM; in assay [2], 6620 nM.
